Results: patent US12077503B2, “Substituted cyclic amides and their use as herbicides” (FMC CORPORATION, priority 2015, dated 2024)

Tests used:
Assay type in all cases: in vivo
[1] = system: barnyardgrass (Echinochloa crus-galli); assay: Test G Pre-Emergence Protocol; conditions: Echinochloa crus-galli, pre-emergence, 312 h, evaluated after 13 days
Procedure, shortened: (§1)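 One day after sowing, pots are treated with a spray of test compound formulated in acetone/water 50:50 plus 0.5% Tween 20, giving 15.625, 62.5 or 250 g/ha. Evaluation on a 0–100 damage scale follows 13 days of glasshouse growth.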

corn (Zea mays) [2] = assay: Test G Pre-Emergence Protocol; conditions: Zea mays, pre-emergence, 312 h, evaluated after 13 days
Procedure, shortened: as §1

[3] = system: giant foxtail (Setaria faberi); assay: Test G Pre-Emergence Protocol; conditions: Setaria faberi, pre-emergence, 312 h, evaluated after 13 days
Procedure, shortened: as §1

[4] = system: ivy-leaved morning glory (Ipomoea hederacea); assay: Test G Pre-Emergence Protocol; conditions: Ipomoea, pre-emergence, 312 h, evaluated after 13 days
Procedure, shortened: as §1

[5] = system: redroot pigweed (Amaranthus retroflexus); assay: Test G Pre-Emergence Protocol; conditions: Amaranthus retroflexus, pre-emergence, 312 h, evaluated after 13 days
Procedure, shortened: as §1

[6] = system: velvetleaf (Abutilon theophrasti); assay: Test G Pre-Emergence Protocol; conditions: Abutilon theophrasti, pre-emergence, 312 h, evaluated after 13 days
Procedure, shortened: as §1

[7] = system: barnyardgrass (Echinochloa crus-galli); assay: Test G Post-Emergence Protocol; conditions: Echinochloa crus-galli, post-emergence, 312 h
Procedure, shortened: (§2)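 Scores run 0 (no damage) to 100 (total damage) and were taken 13 days after spraying. Plants had been raised in pots for 8 days under glasshouse control (24/16 °C, 14 h photoperiod, 65% humidity) and then treated at 15.625, 62.5 or 250 g/ha.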

corn (Zea mays) [8] = assay: Test G Post-Emergence Protocol; conditions: Zea mays, post-emergence, 312 h
Procedure, shortened: as §2

[9] = system: giant foxtail (Setaria faberi); assay: Test G Post-Emergence Protocol; conditions: Setaria faberi, post-emergence, 312 h
Procedure, shortened: as §2

[10] = system: ivy-leaved morning glory (Ipomoea hederacea); assay: Test G Post-Emergence Protocol; conditions: Ipomoea, post-emergence, 312 h
Procedure, shortened: as §2

[11] = system: redroot pigweed (Amaranthus retroflexus); assay: Test G Post-Emergence Protocol; conditions: Amaranthus retroflexus, post-emergence, 312 h
Procedure, shortened: as §2

[12] = system: velvetleaf (Abutilon theophrasti); assay: Test G Post-Emergence Protocol; conditions: Abutilon theophrasti, post-emergence, 312 h
Procedure, shortened: as §2

Cc1nccc(NC(=O)[C@@H]2C(=O)N(C)C[C@H]2c2ccc(C(F)(F)F)cc2)n1 (racemic) [Compound 1641]
0%: pest or weed control at 15.625 g/ha ([1]; 15.625 g ai/ha, read-out: Barnyard grass damage rating (100=total damage to plant; 0=no damage to plant)) | pest or weed control at 62.5 g/ha ([1]; 62.5 g ai/ha, 100=total damage to plant, 0=no damage to plant, read-out: plant damage rating, Barnyardgrass) | pest or weed control at 250 g/ha ([1]; 250 g ai/ha, read-out: Barnyardgrass damage rating (100=total damage to plant; 0=no damage to plant)) | plant injury at 15.625 g/ha (corn (Zea mays) [2]; 15.625 g ai/ha, read-out: Corn damage rating (100=total damage to plant; 0=no damage to plant)) | plant injury at 62.5 g/ha (corn (Zea mays) [2]; 62.5 g ai/ha, 100=total damage to plant, 0=no damage to plant, read-out: plant damage rating, Corn) | plant injury at 250 g/ha (corn (Zea mays) [2]; 250 g ai/ha, read-out: Corn damage rating (100=total damage to plant; 0=no damage to plant)) | pest or weed control at 15.625 g/ha ([3]; 15.625 g ai/ha, read-out: Foxtail, Giant damage rating (100=total damage to plant; 0=no damage to plant)) | pest or weed control at 62.5 g/ha ([3]; 62.5 g ai/ha, 100=total damage to plant, 0=no damage to plant, read-out: plant damage rating, Foxtail, Giant) | pest or weed control at 250 g/ha ([3]; 250 g ai/ha, read-out: Foxtail, Giant damage rating (100=total damage to plant; 0=no damage to plant)) | pest or weed control at 15.625 g/ha ([4]; 15.625 g ai/ha, read-out: Morning-glory, Ivy-leaved damage rating (100=total damage to plant; 0=no damage to plant)) | pest or weed control at 62.5 g/ha ([4]; 62.5 g ai/ha, 100=total damage to plant, 0=no damage to plant, read-out: plant damage rating, Morningglory, Ivy-leaved) | pest or weed control at 250 g/ha ([4]; 250 g ai/ha, read-out: Morningglory, Ivy-leaved damage rating (100=total damage to plant; 0=no damage to plant)) | pest or weed control at 15.625 g/ha ([5]; 15.625 g ai/ha, read-out: Pigweed, Redroot damage rating (100=total damage to plant; 0=no damage to plant)) | pest or weed control at 62.5 g/ha ([5]; 62.5 g ai/ha, 100=total damage to plant, 0=no damage to plant, read-out: plant damage rating, Pigweed, Redroot) | pest or weed control at 250 g/ha ([5]; 250 g ai/ha, read-out: Pigweed, Redroot damage rating (100=total damage to plant; 0=no damage to plant)) | pest or weed control at 15.625 g/ha ([6]; 15.625 g ai/ha, read-out: Velvetleaf damage rating (100=total damage to plant; 0=no damage to plant)) | pest or weed control at 62.5 g/ha ([6]; 62.5 g ai/ha, 100=total damage to plant, 0=no damage to plant, read-out: plant damage rating, Velvetleaf) | pest or weed control at 250 g/ha ([6]; 250 g ai/ha, read-out: Velvetleaf damage rating (100=total damage to plant; 0=no damage to plant)) | pest or weed control at 15.625 g/ha ([7]; 15.625 g ai/ha, evaluated after 13 days (100=total damage to plant; 0=no damage to plant), read-out: Barnyardgrass damage rating) | pest or weed control at 62.5 g/ha ([7]; 62.5 g ai/ha, evaluated after 13 days, read-out: Barnyardgrass damage rating (100=total damage to plant; 0=no damage to plant)) | pest or weed control at 250 g/ha ([7]; 250 g ai/ha, evaluated after 13 days, read-out: damage to plant, Barnyardgrass (100=total damage to plant; 0=no damage to plant)) | plant injury at 15.625 g/ha (corn (Zea mays) [8]; 15.625 g ai/ha, evaluated after 13 days (100=total damage to plant; 0=no damage to plant), read-out: Corn damage rating) | plant injury at 62.5 g/ha (corn (Zea mays) [8]; 62.5 g ai/ha, evaluated after 13 days, read-out: Corn damage rating (100=total damage to plant; 0=no damage to plant)) | plant injury at 250 g/ha (corn (Zea mays) [8]; 250 g ai/ha, evaluated after 13 days, read-out: damage to plant, Corn (100=total damage to plant; 0=no damage to plant)) | pest or weed control at 15.625 g/ha ([9]; 15.625 g ai/ha, evaluated after 13 days (100=total damage to plant; 0=no damage to plant), read-out: Foxtail, Giant damage rating) | pest or weed control at 62.5 g/ha ([9]; 62.5 g ai/ha, evaluated after 13 days, read-out: Foxtail, Giant damage rating (100=total damage to plant; 0=no damage to plant)) | pest or weed control at 250 g/ha ([9]; 250 g ai/ha, evaluated after 13 days, read-out: damage to plant, Foxtail, Giant (100=total damage to plant; 0=no damage to plant)) | pest or weed control at 15.625 g/ha ([10]; 15.625 g ai/ha, evaluated after 13 days (100=total damage to plant; 0=no damage to plant), read-out: Morningglory, Ivy-leaved damage rating) | pest or weed control at 62.5 g/ha ([10]; 62.5 g ai/ha, evaluated after 13 days, read-out: Morningglory, Ivy-leaved damage rating (100=total damage to plant; 0=no damage to plant)) | pest or weed control at 250 g/ha ([10]; 250 g ai/ha, evaluated after 13 days, read-out: damage to plant, Morningglory, Ivy-leaved (100=total damage to plant; 0=no damage to plant)) | pest or weed control at 15.625 g/ha ([11]; 15.625 g ai/ha, evaluated after 13 days (100=total damage to plant; 0=no damage to plant), read-out: Pigweed, Redroot damage rating) | pest or weed control at 62.5 g/ha ([11]; 62.5 g ai/ha, evaluated after 13 days, read-out: Pigweed, Redroot damage rating (100=total damage to plant; 0=no damage to plant)) | pest or weed control at 250 g/ha ([11]; 250 g ai/ha, evaluated after 13 days, read-out: damage to plant, Pigweed, Redroot (100=total damage to plant; 0=no damage to plant)) | pest or weed control at 15.625 g/ha ([12]; 15.625 g ai/ha, evaluated after 13 days (100=total damage to plant; 0=no damage to plant), read-out: Velvetleaf damage rating) | pest or weed control at 62.5 g/ha ([12]; 62.5 g ai/ha, evaluated after 13 days, read-out: Velvetleaf damage rating (100=total damage to plant; 0=no damage to plant)) | pest or weed control at 250 g/ha ([12]; 250 g ai/ha, evaluated after 13 days, read-out: damage to plant, Velvetleaf (100=total damage to plant; 0=no damage to plant))
